From patent publication US20250375418A1, “1-(NAPHTHALEN-2-YL)-3-AZABICYCLO[3.1.0]HEXANE FOR TREATING MAJOR DEPRESSIVE DISORDER” (OTSUKA PHARMACEUTICAL CO., LTD., priority 2022, published 2025)
Values joined by “and” are separate entries in the source; they are usually repeats but may differ in a detail not shown here. Equal values may be shown once. Where a name gives a salt, the structure may show the parent alone. Read-outs that look alike come from different tables or passages of the source.

Columns and labels:
[1] = Plasma pharmacokinetics of CTN HCl formulation, 164.4 mg or 328.8 mg, First Day and Fifth Day (Table 12); assay type: in vivo, human; settings: for AUC ratio / Cmax ratio: Fifth Day/First Day; for Tmax: n = 8, median; for Cmax / AUC(0-t) / concentration at 1 h / concentration at 12 h / concentration at 16 h / AUC(0-inf): n = 8, mean; for AUC(0-t): read-out: AUC0-24 h; for concentration at 1 h: read-out: C1 hr; for concentration at 12 h: read-out: C12 hr; for concentration at 16 h: read-out: C16 hr
Protocol: The plasma pharmacokinetics from a CTN HCl formulation having a dose of 164.4 mg or 328.8 mg can be as in Table 12.

[2] = Plasma pharmacokinetics of a CTN HCl formulation, 164.4 mg dose (Table 11); assay type: in vivo, human; settings: for Tmax: median
Protocol: The plasma pharmacokinetics from a CTN HCl formulation having a dose of 164.4 mg can be as in Table 11.

[3] = target: norepinephrine reuptake transporter (NET) (Homo sapiens, UniProt P23975); assay: Reuptake transporter inhibition, NET; assay type: biochemical; settings: relative among NET, DAT, SERT
Sequence of norepinephrine reuptake transporter (NET) (P23975 whole entry): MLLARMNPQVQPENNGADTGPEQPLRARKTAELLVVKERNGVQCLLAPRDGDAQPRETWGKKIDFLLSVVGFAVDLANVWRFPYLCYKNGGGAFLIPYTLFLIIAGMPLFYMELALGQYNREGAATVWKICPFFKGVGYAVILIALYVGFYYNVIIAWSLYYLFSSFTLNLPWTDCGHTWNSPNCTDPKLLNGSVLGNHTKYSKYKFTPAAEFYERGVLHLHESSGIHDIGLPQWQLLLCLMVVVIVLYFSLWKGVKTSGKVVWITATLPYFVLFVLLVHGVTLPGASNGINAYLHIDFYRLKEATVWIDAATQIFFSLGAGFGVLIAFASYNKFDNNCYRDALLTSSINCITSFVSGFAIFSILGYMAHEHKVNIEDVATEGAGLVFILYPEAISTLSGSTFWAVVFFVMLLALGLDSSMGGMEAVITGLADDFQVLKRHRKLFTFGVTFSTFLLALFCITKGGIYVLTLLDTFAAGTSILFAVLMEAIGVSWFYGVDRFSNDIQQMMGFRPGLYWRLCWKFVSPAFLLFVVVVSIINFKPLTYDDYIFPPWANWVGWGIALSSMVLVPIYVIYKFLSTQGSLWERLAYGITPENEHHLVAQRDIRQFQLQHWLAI
From the text: (§1) and is an unbalanced triple reuptake inhibitor with the most potency towards the norepinephrine reuptake transporter (NET), one-sixth as much towards the dopamine reuptake transporter (DAT), and one-fourteenth as much towards the serotonin reuptake transporter (SERT).

adult subjects with MDD [4] = assay: Phase 2 trial, centanafadine XR monotherapy in MDD (Example 1); settings: 328.8 mg once daily XR
adult subjects with MDD [5] = assay: Phase 2 trial, centanafadine XR as adjunct to escitalopram in MDD (Example 2); assay type: in vivo, human
From the text: Inclusion and Exclusion criteria are the same as Example 1. In addition, subjects who are taking escitalopram or citalopram at the time of screening, have been exposed to escitalopram or citalopram in their current MDE, or have reported an inadequate response to an adequate dose/duration of escitalopram or citalopram in the past, are also excluded.
All subjects receive either escitalopram monotherapy, centanafadine QD XR capsules+escitalopram (combination therapy), or matching placebo, for 6 weeks.
For day 1, the escitalopram tablet is a 10 mg QD dose. At Week 1, dosing increases to 20 mg QD for the remainder of subject participation in the trial.
Subjects assigned to receive escitalopram monotherapy receive a 10 mg QD dose at Day 1. At Week 1, dosing increases to 20 mg QD for the remainder of subject participation in the trial. Dose reductions are not permitted.

[6] = target: serotonin reuptake transporter (SERT) (Homo sapiens, UniProt P31645); assay: Reuptake transporter inhibition, SERT; assay type: biochemical
Sequence of serotonin reuptake transporter (SERT) (P31645 whole entry, species assumed): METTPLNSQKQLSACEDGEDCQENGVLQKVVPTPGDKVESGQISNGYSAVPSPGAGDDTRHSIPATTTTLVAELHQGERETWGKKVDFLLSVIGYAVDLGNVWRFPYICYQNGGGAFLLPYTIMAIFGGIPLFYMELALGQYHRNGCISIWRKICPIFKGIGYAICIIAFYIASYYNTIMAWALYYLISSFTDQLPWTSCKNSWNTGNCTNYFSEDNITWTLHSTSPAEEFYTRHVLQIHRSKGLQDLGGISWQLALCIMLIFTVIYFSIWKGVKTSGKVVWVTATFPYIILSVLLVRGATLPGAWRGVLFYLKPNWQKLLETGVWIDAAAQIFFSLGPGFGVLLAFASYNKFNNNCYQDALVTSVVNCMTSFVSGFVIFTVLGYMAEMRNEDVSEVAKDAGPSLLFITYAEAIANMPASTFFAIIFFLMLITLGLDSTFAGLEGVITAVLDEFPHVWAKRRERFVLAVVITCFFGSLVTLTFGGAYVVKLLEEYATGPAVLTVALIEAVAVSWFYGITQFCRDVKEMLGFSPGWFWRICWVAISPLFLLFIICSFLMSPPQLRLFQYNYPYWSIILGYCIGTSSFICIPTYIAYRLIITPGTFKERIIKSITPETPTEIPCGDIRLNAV
From the text: as §1

[7] = target: dopamine reuptake transporter (DAT) (Homo sapiens, UniProt Q01959); assay: Reuptake transporter inhibition, DAT; assay type: biochemical
Sequence of dopamine reuptake transporter (DAT) (Q01959 whole entry, species assumed): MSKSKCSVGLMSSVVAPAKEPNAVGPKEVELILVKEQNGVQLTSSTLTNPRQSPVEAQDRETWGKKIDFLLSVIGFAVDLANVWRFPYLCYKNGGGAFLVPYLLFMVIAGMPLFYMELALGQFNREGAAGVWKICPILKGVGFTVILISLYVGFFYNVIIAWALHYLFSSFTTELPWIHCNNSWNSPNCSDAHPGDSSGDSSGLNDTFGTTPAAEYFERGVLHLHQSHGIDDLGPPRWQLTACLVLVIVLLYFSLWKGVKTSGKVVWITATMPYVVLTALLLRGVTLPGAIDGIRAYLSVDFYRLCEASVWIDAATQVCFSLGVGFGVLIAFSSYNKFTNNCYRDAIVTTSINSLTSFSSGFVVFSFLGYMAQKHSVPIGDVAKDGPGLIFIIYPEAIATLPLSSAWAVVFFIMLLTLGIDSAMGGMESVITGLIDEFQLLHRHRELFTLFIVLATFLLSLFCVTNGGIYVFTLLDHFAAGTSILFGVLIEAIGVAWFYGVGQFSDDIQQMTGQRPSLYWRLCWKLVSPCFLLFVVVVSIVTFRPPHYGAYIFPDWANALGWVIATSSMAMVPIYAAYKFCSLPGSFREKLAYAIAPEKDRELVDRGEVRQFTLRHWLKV
From the text: as §1

[8] = Safety and tolerability (adverse events); settings: in vivo
[9] = Biopharmaceutics classification (solubility, permeability); assay type: physicochemical
From the text: Described herein are methods of using centanafadine (CTN) or a pharmaceutically acceptable salt thereof for the treatment of central nervous system disorders. […] As used herein, CTN should be understood to refer to centanafadine, while pharmaceutically acceptable salts thereof are also considered in addition to or as one or more alternatives to CTN in every method, use, and formulation described herein, unless explicitly stated otherwise. Centanafadine [CAS 924012-43-1], also known chemically as (1R,5S)-1-(naphthalen-2-yl)-3-azabicyclo[3.1.0]hexane or (+)-1-(naphthalen-2-yl)-3-azabicyclo[3.1.0]hexane, has the following structure: […]

[10] = human, plasma, 164.4 mg, Fifth Day
[11] = human, plasma, 164.4 mg, First Day
[12] = human, plasma, 328.8 mg, First Day
[13] = human, plasma, oral, 164.4 mg, Fifth Day
[14] = human, plasma, oral, 164.4 mg, First Day
[15] = human, plasma, oral, 328.8 mg, Fifth Day
[16] = human, plasma, oral, 328.8 mg, First Day

**Q.** For `c1ccc2cc([C@]34CNC[C@H]3C4)ccc2c1` [Centanafadine HCl], which AUC ratio ([1]; 164.4 mg) is on record?
**A.** 0.98

**Q.** And the Cmax ratio ([1]; 164.4 mg)?
**A.** 1.13

**Q.** What about the Tmax ([1]; 328.8 mg, Fifth Day) of the same compound?
**A.** 5.00 h

**Q.** And the AUC ratio ([1]; 328.8 mg)?
**A.** 1.16

**Q.** What about the Cmax ratio ([1]; 328.8 mg) of the same compound?
**A.** 1.31

**Q.** And the Cmax [1, 10]?
**A.** 709 ng/mL

**Q.** And the AUC(0-t) [1, 10]?
**A.** 6650 ng·h/mL

**Q.** And the Cmax [1, 11]?
**A.** 651 ng/mL

**Q.** And the AUC(0-t) [1, 11]?
**A.** 6570 ng·h/mL

**Q.** What about the AUC(0-t) ([1]; human, plasma, 328.8 mg, Fifth Day) of the same compound?
**A.** 18400 ng·h/mL

**Q.** What about the AUC(0-t) [1, 12] of the same compound?
**A.** 16000 ng·h/mL

**Q.** And the concentration at 1 h [1, 13]?
**A.** 427 ng/mL

**Q.** And the concentration at 12 h [1, 13]?
**A.** 276 ng/mL

**Q.** And the concentration at 16 h [1, 13]?
**A.** 103 ng/mL

**Q.** And the Tmax ([1]; human, plasma, oral, 164.4 mg, Fifth Day, read-out: tmax)?
**A.** 5.5 h

**Q.** What about the concentration at 1 h [1, 14] of the same compound?
**A.** 358 ng/mL

**Q.** What about the concentration at 12 h [1, 14] of the same compound?
**A.** 289 ng/mL

**Q.** And the concentration at 16 h [1, 14]?
**A.** 133 ng/mL

**Q.** What about the Tmax ([1]; human, plasma, oral, 164.4 mg, First Day, read-out: tmax) of the same compound?
**A.** 7 h

**Q.** What about the Cmax [1, 15] of the same compound?
**A.** 2230 ng/mL

**Q.** And the concentration at 1 h [1, 15]?
**A.** 718 ng/mL

**Q.** What about the concentration at 12 h [1, 15] of the same compound?
**A.** 646 ng/mL

**Q.** What about the concentration at 16 h [1, 15] of the same compound?
**A.** 211 ng/mL

**Q.** What about the Cmax [1, 16] of the same compound?
**A.** 1940 ng/mL

**Q.** What about the concentration at 1 h [1, 16] of the same compound?
**A.** 640 ng/mL

**Q.** And the concentration at 12 h [1, 16]?
**A.** 750 ng/mL

**Q.** And the concentration at 16 h [1, 16]?
**A.** 306 ng/mL

**Q.** And the Tmax ([1]; human, plasma, oral, 328.8 mg, First Day, read-out: tmax)?
**A.** 4 h

**Q.** What about the AUC(0-inf) [1, 11] of the same compound?
**A.** 7110 ng·h/mL

**Q.** And the AUC(0-inf) [1, 12]?
**A.** 16700 ng·h/mL

**Q.** And the AUC0-24 h [2]?
**A.** 5290 ng·h/mL

**Q.** And the C1 hr [2]?
**A.** 302 ng/mL and 321 ng/mL and 358 ng/mL

**Q.** What about the C12 hr [2] of the same compound?
**A.** 186 ng/mL and 220 ng/mL and 289 ng/mL

**Q.** What about the Cmax [2] of the same compound?
**A.** 618 ng/mL and 629 ng/mL

**Q.** What about the Tmax ([2]; human, oral, read-out: tmax) of the same compound?
**A.** 4 to 7.5 h

**Q.** And the AUC(0-inf) ([2]; human, oral, n = 11, read-out: AUC0-inf)?
**A.** 5000 to 8000 ng·h/mL

**Q.** And the AUC(0-t) ([2]; human, oral, read-out: AUC0-1 h)?
**A.** 150 to 500 ng·h/mL

**Q.** What about the AUC(0-t) ([2]; human, oral, read-out: AUC0-24 h) of the same compound?
**A.** 4500 to 7500 ng·h/mL

**Q.** What about the Cmax ([2]; human, oral, read-out: Cmax) of the same compound?
**A.** 500 to 700 ng/mL

**Q.** What about the Tmax [2] of the same compound?
**A.** 4.5 h and 5 h

**Q.** What about the AUC(0-inf) ([2]; n = 11) of the same compound?
**A.** 6240 ng·h/mL and 7110 ng·h/mL

**Q.** Which results are given for `c1ccc2cc([C@]34CNC[C@H]3C4)ccc2c1` [Centanafadine, (1R,5S)-1-(naphthalen-2-yl)-3-azabicyclo[3.1.0]hexane]?
**A.** potency towards NET [3]: most potency; SF-36v2 general scores from baseline (adult subjects with MDD [4]; 6 weeks): Increased; efficacy as monotherapy in patients with MDD (adult subjects with MDD [4]; 6 weeks): effective as monotherapy; risk for depression (SF-36v2) (adult subjects with MDD [4]; 6 weeks): reduced; CGI-C scores (adult subjects with MDD [4]; 6 weeks, vs placebo): significant reductions; CGI-S scores from baseline (adult subjects with MDD [4]; 6 weeks, vs placebo): significant reductions; PGI-C scores (adult subjects with MDD [4]; 6 weeks, vs placebo): significant reductions; PGI-S scores from baseline (adult subjects with MDD [4]; 6 weeks, vs placebo): significant reductions; primary efficacy measures (MADRS Total score) (adult subjects with MDD [4]; after 6-week double-blind treatment, vs placebo): significantly reduces; mean decrease of primary efficacy measures (MADRS Total score) (adult subjects with MDD [5]; 6 weeks combination therapy (centanafadine XR 328.8 mg + escitalopram 10-20 mg QD) vs escitalopram monotherapy): greater; efficacy as adjunct therapy to SSRI (escitalopram) in patients with MDD (adult subjects with MDD [5]; centanafadine XR 328.8 mg + escitalopram, 6 weeks): effective as an adjunct therapy; potency towards SERT relative to NET [6]: one-fourteenth; potency towards DAT relative to NET [7]: one-sixth; safety and tolerability, rate of adverse events (AEs) [8]: generally safe and well tolerated; BSC classification [9]: Class I; solubility [9]: highly soluble; permeability ([9]; not told): highly permeable
